Holding throughout (assay): Test A antibacterial assay, MIC by microtitration
Common to all, as to type: cell-based

One assay concerns M. catarrhalis BC-3531. As to conditions: Moraxella catarrhalis, BC3531; Gram Negative Bacteria; strain BC-3531; read-out: Minimum Inhibitory Concentrations M. catarrhalis BC-3531. Here is the method:
(§1) Test A—Antibacterial Assays
(§2) The compounds of the present invention were tested against an assortment of Gram-negative and Gram-positive organisms using standard microtitration techniques (Cohen et. al., Antimicrob., 1985;28:766; Heifetz, et. al., Antimicrob., 1974;6:124).

For a further assay, the system named is H. influenzae HI-3542. As to conditions: Haemophilus influenzae, HI3542; Gram Negative Bacteria; strain HI-3542; read-out: Minimum Inhibitory Concentrations H. influenzae HI-3542. How it is done: as §1, §2
A further assay concerns E. coli EC-2549. As to conditions: Escherichia coli, EC2549; Gram Negative Bacteria; strain EC-2549; read-out: Minimum Inhibitory Concentrations E. coli EC-2549. How it is done:
as §1, §2

A further assay deals with S pyogenes C203. As to conditions: Gram Positive Bacteria; strain C203; read-out: Minimum Inhibitory Concentrations S pyogenes C203. Here is the method: as §1, §2
The test system of the next assay is E. faecalis MGH-2. As to conditions: Enterococcus faecalis, MGH2; Gram Positive Bacteria; strain MGH-2; read-out: Minimum Inhibitory Concentrations E. faecalis MGH-2. How it is done:
as §1, §2

Another assay relates to S. aureus UC-76. As to conditions: Staphylococcus aureus, UC76; Gram Positive Bacteria; strain UC-76; read-out: Minimum Inhibitory Concentrations S. aureus UC-76. Here is the method: as §1, §2

SMILES strings stand for the structures. In brackets after ≈: the same amount, converted by molar mass.

Among the data in patent US20050096297A1, “Antibacterial agents” (priority 2003, published 2005) are MIC values, retold here.

As to `Cc1c(N2CC(O)(C(F)(F)F)C2)c(F)cc2c(=O)c(C(=O)O)cn(C3CC3)c12`, the figures for the MIC in the assay with M. catarrhalis BC-3531, in the assay with H. influenzae HI-3542 and with E. coli EC-2549 were 0.06 µg/mL (≈ 0.15 µM), 0.03 µg/mL (≈ 0.0749 µM) and 0.0004 µg/mL (≈ 0.000999 µM), respectively.
With `O=C(O)c1cn(C2CC2)c2c(Cl)c(N3CC(O)(C4CC4)C3)c(F)cc2c1=O` [drawing 135], the MIC amounted to 0.5 µg/mL (≈ 1.27 µM) in the assay on S pyogenes C203, 0.5 µg/mL (≈ 1.27 µM) in the assay on E. faecalis MGH-2 and 0.03 µg/mL (≈ 0.0764 µM) with S. aureus UC-76.
For the compound `Cc1c(N2CC(CCO)C2)c(F)cc2c(=O)c(C(=O)O)cn(C3CC3)c12` [drawing 130], the MIC in the assay with M. catarrhalis BC-3531 is 0.015 µg/mL (≈ 0.0416 µM); in the assay on H. influenzae HI-3542, 0.008 µg/mL (≈ 0.0222 µM); in the assay on E. coli EC-2549, 0.002 µg/mL (≈ 0.00555 µM).
In the case of `Cc1c(N2CC(CCO)C2)c(F)cc2c(=O)c(C(=O)O)cn(C3CC3)c12` [drawing 133], the MIC was determined as 0.25 µg/mL (≈ 0.694 µM) in the assay with S pyogenes C203, 0.25 µg/mL (≈ 0.694 µM) in the assay on E. faecalis MGH-2 and 0.03 µg/mL (≈ 0.0832 µM) with S. aureus UC-76.
As for `O=C(O)c1cn(C2CC2)c2c(Cl)c(N3CC(O)(C4CC4)C3)c(F)cc2c1=O` [drawing 132], the figures for the MIC in the assay with M. catarrhalis BC-3531, in the assay with H. influenzae HI-3542 and in the assay on E. coli EC-2549 were 0.03 µg/mL (≈ 0.0764 µM), 0.03 µg/mL (≈ 0.0764 µM) and 0.002 µg/mL (≈ 0.00509 µM), respectively.
